Measured values published in US5607926A, “Cephalosporin antibiotics” (Microcide Pharmaceuticals, Inc., priority 1995, dated 1997).
≈ marks a conversion by molar mass, not a printed value. Structures can show the parent of a compound that is named as a salt. Where two headings read alike, the source gives them in different places.

Legend:
[1] = tested on: methicillinsusceptible S. aureus strain ATCC 13709; assay: Challenge strain MIC; type: cell-based; conditions: Staphylococcus aureus
Experimental: The compounds of the invention were evaluated against several β-lactamresistant bacteria strains by determining the minimum inhibitory concentration (MIC, μg/ml) of each compound with respect to each strain. The MIC, the lowest concentration of antibiotic which inhibits growth of the test organism, was determined by the agar dilution method.
To determine the MIC for bacterial isolates, the test compound was incorporated in a series of two-fold dilutions into liquified Mueller-Hinton agar. Upon solidification, a number of different bacterial strains were spot inoculated with a replicating device onto the agar surface. […] The procedures used in these studies have been standardized by the National Committee for Clinical Laboratory Standards (NCCLS), as per the NCCLS publication entitled METHODS FOR DILUTION ANTIMICROBIAL SUSCEPTIBILITY TESTS (1991), which is incorporated herein by reference.
Aliquots of antimicrobial agents were prepared in phosphate buffered saline (PBS) at pH 7.2. Tween 20 or DMSO was used as a solubilizing vehicle as needed. Standard methods of vortexing, sonicating and gentle heat were used to facilitate solubilizing the test agent. Typically, the concentration of the stock solution was 10× that of the highest drug concentration tested. A 1.28 mg/mL stock solution was used with a subsequent highest working concentration of 128 μg/mL. Serial two-fold dilutions were done through ≤0.25 μg/mL. Each drug level was tested in duplicate. Two-fold drug dilutions were done in sterile 50 mL tubes with a final drug volume of 5 mL. Upon the addition of 45 mL of molten agar, a 10-fold dilution resulted. Two, 25 mL. plates were then poured into 15×150 mm square Petri plates with grids and allowed to harden.
A control plate with a reference drug, either cefotaxime, vancomycin or imipenem, was used as the positive growth control. Stock concentrations of reference antibiotics were prepared and frozen at -80° C. Upon preparation, the control plates were sealed and stored in the refrigerator for up to 1 week prior to use; however, imipenem control plates had to be prepared just prior to use. All test plates were used within 24 hours of preparation.
Satisfactory results were obtained where the inoculum contained about 10^4 colony forming units (cfu) ±0.5 logs. Starting with pure cultures of the test isolates on agar plates, a few isolated colonies were transferred to a tube of nutrient broth and allowed to grow 4-6 hours at 35°-36° C. to reach log-phase growth. Dropwise addition of the broth culture to PBS was done to match a 0.5 McFarland turbidity standard equal to 10^8 cfu/mL. This was further diluted ten-fold in PBS to reach a working inoculum concentration of 10^7 cfu/mL. When 1 μL of the working inoculum was applied to the agar surface a concentration of about 10^4 cfu per spot was obtained.
Disposable sterile 1 μL loops were used to inoculate test plates, with each isolate in a designated grid on the agar plate. An alternate method of inoculation involved the use of a replica plater, a device with 48 steel pins allowing the simultaneous inoculation of multiple isolates. After the spots had dried, the plates were incubated at 35°-36° C. for 16-20 hours. Endpoints were assessed as the minimum inhibitory concentration (MIC) of antimicrobial agent.
(§1) data reported for challenge with methicillinsusceptible S. aureus strain

E. coli ATCC 25922 = assay: In vitro antibacterial evaluation, MIC by agar dilution, E. coli ATCC 25922; type: cell-based; conditions: Escherichia coli, ATCC25922, read-out: MIC
Procedure, shortened: (§2)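 Log-phase isolates were spot-inoculated at about 10^4 cfu per spot onto Mueller-Hinton agar plates containing twofold compound dilutions (highest working concentration 128 μg/mL, lowest ≤0.25 μg/mL, duplicates). After 16-20 h at 35-36 °C, the lowest growth-inhibiting level was taken as MIC, per NCCLS agar dilution.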

E. faecium ATCC 35667 = assay: In vitro antibacterial evaluation, MIC by agar dilution, E. faecium ATCC 35667; type: cell-based; conditions: Enterococcus faecium, ATCC35667, read-out: MIC
Procedure, shortened: as §2

P. aeruginosa ATCC 27853 = assay: In vitro antibacterial evaluation, MIC by agar dilution, P. aeruginosa ATCC 27853; type: cell-based; conditions: Pseudomonas aeruginosa, ATCC27853, read-out: MIC
Procedure, shortened: as §2

[2] = tested on: methicillinsusceptible S. aureus strain ATCC 13709; assay: In vivo antibacterial evaluation, murine model for lethal bacteremic peritonitis; set-up: species or system S. aureus in female Swiss-Webster mice; conditions: Staphylococcus aureus, ATCC13709, sc, 72 h, two equal SC doses at challenge and 2 hours later, mice, probit
Experimental: Groups of 5 female Swiss-Webster mice (Simonsen, Gilroy, Calif.) each are challenged by the intraperitoneal (IP) route with ten-fold increments of a bacterial inoculum. This permits calculation of the mean lethal dose (LD50) and the LD100. For preliminary evaluation of a new antibiotic, mice are challenged IP with an LD100 titer of bacteria. In two equal doses administered at the time of bacterial challenge and 2 hours later, groups of 10 mice each are treated subcutaneously with two-fold increments of the test drug and an antibiotic of known efficacy in mice and humans (i.e., positive control). Mice are observed for 72 h. Those alive at 72 h are considered long term survivors. The total drug dose in mg/kg that protects 50% of mice in a group from death is termed the mean protective dose (PD50). PD50 s are similarly determined for several pathogens. The quantitative endpoints for the new drug are then compared with those obtained with reference antibiotics.
Six ten-fold dilutions of inoculum suspended in 0.5 mL of sterilized 7% hog gastric mucin (Sigma) are injected IP in groups of 5 mice each. A control group of 5 mice receive mucin alone. Mice are observed for 72 h. Those alive at 72 h are considered long term survivors. The mean lethal dose (LD50) and 100% lethal dose (LD100) are determined by the probit test.
For antibiotic efficacy studies, mice are challenged IP with bacterial titers that will afford an LD100 for the test strain. In two equal doses administered at the time of bacterial challenge and 2 hours later, groups of 10 mice each are treated by the subcutaneous route (SC) with twofold increments of the test antibiotic; another group is treated similarly with a reference antibiotic of known efficacy in animals and man. Drug doses can range from 0.01 to 512 mg/kg. If the drug is poorly soluble, Tween 20 or propylene glycol will be employed to solubilize the drug. Animals are observed for 72 h. The 50% protective dose (PD50) is calculated in mg/kg by the probit method. The PD50 is the same as the 50% effective dose (ED50) and the 50% curative dose (CD50). Samples of blood from the hearts of all animals that die and from half the mice that survive are cultured on brain-heart infusion agar. Animals that received a protective dosage of the test drug will be alive at 72 h, although they may appear moderately ill to very ill during the observation period. […] Most of these mice will die within 6 to 48 h. Those alive at 72 h will be considered long term survivors.
as §1

[3] = tested on: S. aureus Col8A (Meth^S)(lac^-); assay: In vitro antibacterial evaluation, MIC by agar dilution, S. aureus Col8A; type: cell-based; conditions: Staphylococcus aureus
Procedure, shortened: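 Log-phase isolates were spot-inoculated at about 10^4 cfu onto Mueller-Hinton agar carrying duplicate two-fold compound levels, 128 μg/mL to ≤0.25 μg/mL, following NCCLS (1991). Plates were read after 16-20 h at 35°-36° C. The lowest growth-inhibiting concentration gave the MIC (μg/ml).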

S. haemolyticus (Meth^R) = assay: In vitro antibacterial evaluation, MIC by agar dilution, S. haemolyticus; type: cell-based; conditions: Staphylococcus haemolyticus, read-out: MIC
Procedure, shortened: as §2

S. aureus ATCC 29213 = assay: In vitro antibacterial evaluation, MIC by agar dilution, S. aureus ATCC 29213; type: cell-based; conditions: Staphylococcus aureus, ATCC29213
Procedure, shortened: as §2

E. faecalis ATCC 29212 = assay: In vitro antibacterial evaluation, MIC by agar dilution, E. faecalis ATCC 29212; type: cell-based; conditions: Enterococcus faecalis, ATCC29212; E. faecalis ATCC 29212; read-out: MIC
Procedure, shortened: as §2

[4] = tested on: S. aureus 76 (Meth^R)(lac^+); assay: In vitro antibacterial evaluation, MIC by agar dilution, S. aureus 76; type: cell-based; conditions: Staphylococcus aureus, read-out: MIC
Procedure, shortened: as §2

[5] = ATCC13709, S. aureus ATCC 13709, read-out: Challenge str MIC
[6] = S. aureus ATCC 29213, read-out: MIC
[7] = ATCC13709, read-out: Challenge str MIC

SMILES	MIC [1, 5] [µg/mL]	MIC (E. coli ATCC 25922) [µg/mL]	MIC (E. faecium ATCC 35667) [µg/mL]	MIC (P. aeruginosa ATCC 27853) [µg/mL]	ED50 ([2]; read-out: ED50) [mg/kg]	MIC [3] [µg/mL]	MIC (S. haemolyticus (Meth^R)) [µg/mL]	MIC (S. aureus ATCC 29213; [6]) [µg/mL]	MIC (E. faecalis ATCC 29212) [µg/mL]	MIC [4] [µg/mL]	MIC (S. aureus ATCC 29213) [µg/mL]	MIC [1, 7] [µg/mL]	ED50 [2] [mg/kg]
N=C(N)SCc1ccc(CC(=O)N[C@@H]2C(=O)N3C(C(=O)O)=C(Sc4ccccc4CSC(=N)N)CS[C@H]23)cc1 [Cmpd 97, (7R)-7-[((4-isothiouroniummethylphenyl)acetyl)amino]-3-(2-isothiouroniummethylphenylthio)-3-cephem-4-carboxylate, trifluoroacetic acid salt]	0.062	> 32	1	> 32	0.74	0.125	8	0.06	0.5	4	–	–	–
N=C(N)SCc1ccccc1SC1=C(C(=O)O)N2C(=O)[C@@H](NC(=O)Cc3ccccc3CN)[C@H]2SC1 [Cmpd 101, (7R)-7-[((2-Aminomethylphenyl)acetyl)amino]-3-(2-isothiouroniummethylphenylthio)-3-cephem-4-carboxylate, trifluoroacetic acid salt]	0.125	> 32	2	> 32	0.65	0.25	16	–	1	8	0.25	–	–
N#Cc1ncccc1SC1=C(C(=O)O)N2C(=O)[C@@H](NC(=O)Cc3ccccc3)[C@H]2SC1 [Cmpd 102, (7R)-7-[(Phenylacetyl)amino]-3-(2-cyanopyridin-3-ylthio)-3-cephem-4-carboxylic acid]	–	32 (≈ 70.7 µM)	4 (≈ 8.84 µM)	> 32	1.75	0.125 (≈ 0.276 µM)	32 (≈ 70.7 µM)	–	2 (≈ 4.42 µM)	16 (≈ 35.4 µM)	0.125 (≈ 0.276 µM)	0.125 (≈ 0.276 µM)	–
O=C(Cc1ccccc1)N[C@@H]1C(=O)N2C(C(=O)O)=C(Sc3cccnc3-n3cccn3)CS[C@H]12 [Cmpd 103, (7R)-7-[(Phenylacetyl)amino]-3-(2-(pyrazol-1-yl)pyridin-3-ylthio)-3-cephem-4-carboxylic acid]	0.125 (≈ 0.253 µM)	> 32	2 (≈ 4.05 µM)	> 32	2.67	0.25 (≈ 0.507 µM)	4 (≈ 8.1 µM)	–	1 (≈ 2.03 µM)	8 (≈ 16.2 µM)	0.25 (≈ 0.507 µM)	–	–
CC(C)N=C(NC(C)C)SCC(=O)N[C@@H]1C(=O)N2C(C(=O)O)=C(Sc3ccccc3CSC(=N)N)CS[C@H]12 [Cmpd 125, (7R)-7-[((N,N'-diisopropylisothiouronium)acetyl)amino]-3-(2-isothiouroniummethylphenylthio)-3-cephem-4-carboxylate, trifluoroacetic acid salt]	–	> 32	2	> 32	> 10	0.5	8	0.5	0.25	8	–	–	–
CSCC(=O)N[C@@H]1C(=O)N2C(C(=O)O)=C(Sc3ccccc3CSC(=N)N)CS[C@H]12 [Cmpd 127, (7R)-7-[(methylthioacetyl)amino]-3-(2-isothiouroniummethylphenylthio)-3-cephem-4-carboxylate, inner salt]	–	> 32	1	> 32	0.59	≤ 0.06	–	≤ 0.06	1	8	–	–	–
O=C(CS/C=C\Cl)N[C@@H]1C(=O)N2C(C(=O)O)=C(Sc3ccnn3-c3ccccc3)CS[C@H]12 [Cmpd 131, (7R)-7-[((Z-2-Chlorovinyl)thioacetyl)amino]-3-(1-N-phenylpyrazol-5-ylthio)-3-cephem-4-carboxylic acid]	0.06 (≈ 0.118 µM)	> 32	1 (≈ 1.96 µM)	> 32	1.73	–	32 (≈ 62.9 µM)	–	0.5 (≈ 0.982 µM)	4 (≈ 7.86 µM)	–	–	–
N=C(N)NCCSCC(=O)N[C@@H]1C(=O)N2C(C(=O)O)=C(Sc3ccccc3CSC(=N)N)CS[C@H]12 [Cmpd 137, (7R)-7-[((2-guanidinoethylthio)acetyl)amino]-3-(2-isothiouroniummethylphenylthio)-3-cephem-4-carboxylate, trifluoroacetic acid salt]	0.06	4	0.25	> 32	0.75	0.06	16	–	0.5	4	–	–	–
CN[C@H](CC(C)C)C(=O)N[C@H]1C(=O)N[C@@H](CC(N)=O)C(=O)N[C@H]2C(=O)N[C@H]3C(=O)N[C@H](C(=O)N[C@H](C(=O)O)c4cc(O)cc(O)c4-c4cc3ccc4O)[C@H](O)c3ccc(c(Cl)c3)Oc3cc2cc(c3O[C@@H]2O[C@H](CO)[C@@H](O)[C@H](O)[C@H]2O[C@H]2C[C@](C)(N)[C@H](O)[C@H](C)O2)Oc2ccc(cc2Cl)[C@H]1O [Vancomycin, reference compound]	–	–	–	–	–	–	–	–	–	–	–	1 (≈ 0.69 µM)	2.81
